Assay results from patent US9492471B2, “Methods of treating a disease or disorder associated with Bruton'S Tyrosine Kinase” (Celgene Avilomics Research, Inc., priority 2013, dated 2016).
Where two headings read alike, the source gives them in different places.

How the values were obtained:
Experiment in all cases: HotSpot kinase profiling
Type in all cases: biochemical
CAMK1g = biological target: T1, CAMK1g (Homo sapiens, UniProt Q96NX5)
T1 construct: purchased Reaction Biology Corp
Method in brief: (§1)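 Radiometric kinase assay with P81 filter capture; each kinase was added to fresh substrate plus cofactors in reaction buffer and incubated 2 h at room temperature. Unreacted phosphate was washed off with 0.1% phosphoric acid before detection; percent inhibition is relative to DMSO control, averaged over replicates.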

DAPK2 = biological target: T2, DAPK2 (Homo sapiens, UniProt Q9UIK4)
T2 construct: purchased Reaction Biology Corp
T2 sequence (Q9UIK4 whole entry): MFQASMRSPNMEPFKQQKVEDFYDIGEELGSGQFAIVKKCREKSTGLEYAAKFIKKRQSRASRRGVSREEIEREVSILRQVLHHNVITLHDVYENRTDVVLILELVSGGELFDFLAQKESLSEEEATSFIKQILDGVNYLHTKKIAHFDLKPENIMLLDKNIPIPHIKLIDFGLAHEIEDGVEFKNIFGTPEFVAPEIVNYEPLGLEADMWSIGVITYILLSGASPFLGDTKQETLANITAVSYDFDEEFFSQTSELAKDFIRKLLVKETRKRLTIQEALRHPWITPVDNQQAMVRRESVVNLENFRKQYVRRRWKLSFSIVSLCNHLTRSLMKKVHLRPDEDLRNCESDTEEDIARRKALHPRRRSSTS
Method in brief: as §1

EPHB4 = biological target: T3, EPHB4 (Homo sapiens, UniProt P54760)
T3 construct: purchased Reaction Biology Corp
T3 sequence (P54760 16-987): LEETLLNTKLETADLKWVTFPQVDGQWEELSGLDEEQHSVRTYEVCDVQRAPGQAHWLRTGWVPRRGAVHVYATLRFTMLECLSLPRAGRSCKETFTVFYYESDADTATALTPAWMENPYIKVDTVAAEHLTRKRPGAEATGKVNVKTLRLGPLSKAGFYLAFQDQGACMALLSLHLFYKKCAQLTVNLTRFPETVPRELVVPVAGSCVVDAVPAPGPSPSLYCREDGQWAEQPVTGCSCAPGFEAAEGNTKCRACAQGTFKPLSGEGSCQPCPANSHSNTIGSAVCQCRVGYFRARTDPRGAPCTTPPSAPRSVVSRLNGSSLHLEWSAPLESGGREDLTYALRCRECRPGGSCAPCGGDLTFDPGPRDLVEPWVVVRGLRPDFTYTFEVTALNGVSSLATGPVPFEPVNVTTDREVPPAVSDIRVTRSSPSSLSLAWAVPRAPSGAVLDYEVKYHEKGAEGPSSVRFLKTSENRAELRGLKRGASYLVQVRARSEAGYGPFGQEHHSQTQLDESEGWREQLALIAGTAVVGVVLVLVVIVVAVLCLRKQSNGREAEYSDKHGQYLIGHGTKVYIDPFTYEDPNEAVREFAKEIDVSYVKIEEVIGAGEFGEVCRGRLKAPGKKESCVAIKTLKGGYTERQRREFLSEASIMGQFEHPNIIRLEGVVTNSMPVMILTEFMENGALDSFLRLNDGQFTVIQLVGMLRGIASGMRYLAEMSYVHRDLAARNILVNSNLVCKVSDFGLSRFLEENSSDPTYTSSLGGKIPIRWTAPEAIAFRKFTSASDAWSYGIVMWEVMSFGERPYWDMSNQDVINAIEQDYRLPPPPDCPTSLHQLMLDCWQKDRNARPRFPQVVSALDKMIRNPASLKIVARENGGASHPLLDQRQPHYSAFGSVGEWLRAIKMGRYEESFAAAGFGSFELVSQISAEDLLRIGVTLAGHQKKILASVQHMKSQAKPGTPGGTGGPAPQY
Method in brief: as §1

ERK1 = biological target: T4, ERK1 (Homo sapiens, UniProt P27361)
T4 construct: purchased Reaction Biology Corp
T4 sequence (P27361 whole entry): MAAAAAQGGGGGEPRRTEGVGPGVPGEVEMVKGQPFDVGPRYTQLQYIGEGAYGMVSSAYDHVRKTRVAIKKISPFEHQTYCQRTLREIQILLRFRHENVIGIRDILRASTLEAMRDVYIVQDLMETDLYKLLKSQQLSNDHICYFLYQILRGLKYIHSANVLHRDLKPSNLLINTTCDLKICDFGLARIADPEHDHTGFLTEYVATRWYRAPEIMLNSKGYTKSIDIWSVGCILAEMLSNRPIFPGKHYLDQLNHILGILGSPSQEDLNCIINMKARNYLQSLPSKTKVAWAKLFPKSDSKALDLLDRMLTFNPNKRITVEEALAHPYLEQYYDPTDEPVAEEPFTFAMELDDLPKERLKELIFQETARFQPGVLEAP
Method in brief: as §1

GRK4 = biological target: T5, GRK4 (Homo sapiens, UniProt P32298)
T5 construct: purchased Reaction Biology Corp
T5 sequence (P32298 whole entry): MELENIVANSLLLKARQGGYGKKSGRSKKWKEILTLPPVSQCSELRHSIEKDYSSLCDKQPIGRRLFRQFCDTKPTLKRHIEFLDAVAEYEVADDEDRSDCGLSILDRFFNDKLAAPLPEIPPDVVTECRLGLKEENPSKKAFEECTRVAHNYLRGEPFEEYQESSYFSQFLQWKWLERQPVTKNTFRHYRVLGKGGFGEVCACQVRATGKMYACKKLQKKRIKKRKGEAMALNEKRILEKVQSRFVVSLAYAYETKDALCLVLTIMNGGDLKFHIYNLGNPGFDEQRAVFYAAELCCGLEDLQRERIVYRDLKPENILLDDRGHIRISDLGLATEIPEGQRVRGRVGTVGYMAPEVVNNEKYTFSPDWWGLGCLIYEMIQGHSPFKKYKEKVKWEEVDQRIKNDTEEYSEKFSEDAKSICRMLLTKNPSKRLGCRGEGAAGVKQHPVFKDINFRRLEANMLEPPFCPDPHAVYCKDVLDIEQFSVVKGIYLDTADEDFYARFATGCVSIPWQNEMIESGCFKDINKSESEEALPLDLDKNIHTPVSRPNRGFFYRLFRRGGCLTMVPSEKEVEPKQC
Method in brief: as §1

IRAK1 = biological target: T6, IRAK1 (Homo sapiens, UniProt P51617)
T6 construct: purchased Reaction Biology Corp
T6 sequence (P51617 whole entry): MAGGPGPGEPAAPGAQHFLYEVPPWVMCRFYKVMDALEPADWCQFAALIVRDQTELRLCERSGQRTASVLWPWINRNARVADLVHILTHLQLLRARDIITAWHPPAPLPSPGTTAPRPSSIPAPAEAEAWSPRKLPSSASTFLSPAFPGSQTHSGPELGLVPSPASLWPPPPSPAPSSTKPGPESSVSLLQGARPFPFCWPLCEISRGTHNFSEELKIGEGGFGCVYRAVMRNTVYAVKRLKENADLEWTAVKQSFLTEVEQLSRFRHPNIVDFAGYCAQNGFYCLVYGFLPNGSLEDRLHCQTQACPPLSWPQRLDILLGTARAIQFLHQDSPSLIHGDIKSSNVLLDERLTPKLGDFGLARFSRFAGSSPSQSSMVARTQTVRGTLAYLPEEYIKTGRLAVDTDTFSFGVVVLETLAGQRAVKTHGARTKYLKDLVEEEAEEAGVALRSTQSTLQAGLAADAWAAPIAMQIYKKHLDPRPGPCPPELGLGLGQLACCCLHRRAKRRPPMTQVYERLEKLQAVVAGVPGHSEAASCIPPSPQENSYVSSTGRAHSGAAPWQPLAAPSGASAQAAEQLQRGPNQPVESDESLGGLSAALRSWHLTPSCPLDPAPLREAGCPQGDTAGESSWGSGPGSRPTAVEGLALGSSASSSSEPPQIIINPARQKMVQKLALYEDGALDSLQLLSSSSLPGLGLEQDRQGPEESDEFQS
Method in brief: as §1

JAK2 = biological target: T7, JAK2 (Homo sapiens, UniProt O60674)
T7 construct: purchased Reaction Biology Corp
T7 sequence (O60674 whole entry): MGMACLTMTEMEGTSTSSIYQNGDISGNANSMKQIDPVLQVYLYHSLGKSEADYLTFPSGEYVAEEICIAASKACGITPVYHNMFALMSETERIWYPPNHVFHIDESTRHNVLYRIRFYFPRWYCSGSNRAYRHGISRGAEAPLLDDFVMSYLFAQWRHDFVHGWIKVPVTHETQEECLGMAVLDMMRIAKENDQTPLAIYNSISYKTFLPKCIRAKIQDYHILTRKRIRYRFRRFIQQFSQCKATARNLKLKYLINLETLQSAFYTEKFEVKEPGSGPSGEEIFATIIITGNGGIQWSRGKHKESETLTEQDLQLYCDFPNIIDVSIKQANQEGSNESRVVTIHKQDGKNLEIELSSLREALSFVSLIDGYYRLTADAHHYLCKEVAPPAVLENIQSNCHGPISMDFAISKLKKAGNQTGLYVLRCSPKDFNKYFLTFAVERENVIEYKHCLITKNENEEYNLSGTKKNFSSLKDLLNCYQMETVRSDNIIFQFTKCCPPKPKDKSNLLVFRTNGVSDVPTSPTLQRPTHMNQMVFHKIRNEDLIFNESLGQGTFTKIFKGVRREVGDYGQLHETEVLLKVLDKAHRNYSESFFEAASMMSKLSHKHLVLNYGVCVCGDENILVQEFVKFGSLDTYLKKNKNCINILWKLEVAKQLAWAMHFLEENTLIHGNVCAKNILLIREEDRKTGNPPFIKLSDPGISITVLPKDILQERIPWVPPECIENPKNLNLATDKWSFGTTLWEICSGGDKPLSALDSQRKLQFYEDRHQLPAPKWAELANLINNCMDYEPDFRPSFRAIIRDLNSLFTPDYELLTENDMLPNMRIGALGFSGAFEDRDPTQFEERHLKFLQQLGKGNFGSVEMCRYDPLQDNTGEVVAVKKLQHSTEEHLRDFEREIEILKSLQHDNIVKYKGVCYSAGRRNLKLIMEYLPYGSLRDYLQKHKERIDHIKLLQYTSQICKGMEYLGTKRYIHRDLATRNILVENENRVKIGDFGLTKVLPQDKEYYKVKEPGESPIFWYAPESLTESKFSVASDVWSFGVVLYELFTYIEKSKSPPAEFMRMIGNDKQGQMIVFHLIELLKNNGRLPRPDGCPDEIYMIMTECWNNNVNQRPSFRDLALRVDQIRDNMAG
Method in brief: as §1

MAPKAPK2 = biological target: T8, MAPKAPK2 (Homo sapiens, UniProt P49137)
T8 construct: purchased Reaction Biology Corp
Method in brief: as §1

PLK3 = biological target: T9, PLK3 (Homo sapiens, UniProt Q9H4B4)
T9 construct: purchased Reaction Biology Corp
T9 sequence (Q9H4B4 whole entry): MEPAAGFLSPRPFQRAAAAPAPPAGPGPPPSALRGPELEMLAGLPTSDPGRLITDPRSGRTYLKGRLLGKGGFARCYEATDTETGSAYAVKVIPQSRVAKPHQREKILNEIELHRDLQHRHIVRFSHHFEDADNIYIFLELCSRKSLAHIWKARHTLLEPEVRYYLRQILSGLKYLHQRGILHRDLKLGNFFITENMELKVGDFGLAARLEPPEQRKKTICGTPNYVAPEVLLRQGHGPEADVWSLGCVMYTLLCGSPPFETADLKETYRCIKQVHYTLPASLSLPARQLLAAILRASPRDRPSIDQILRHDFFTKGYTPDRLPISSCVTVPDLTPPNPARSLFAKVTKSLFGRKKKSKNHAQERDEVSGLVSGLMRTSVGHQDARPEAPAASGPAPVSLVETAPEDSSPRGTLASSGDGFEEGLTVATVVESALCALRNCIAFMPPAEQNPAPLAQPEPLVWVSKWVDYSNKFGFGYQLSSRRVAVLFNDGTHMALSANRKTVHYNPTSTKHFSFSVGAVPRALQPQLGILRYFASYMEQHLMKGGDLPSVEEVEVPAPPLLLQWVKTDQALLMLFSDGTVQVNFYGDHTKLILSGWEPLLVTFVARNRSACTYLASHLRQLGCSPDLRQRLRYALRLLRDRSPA
Method in brief: as §1

STK38L/NDR2 = biological target: T10, STK38L/NDR2 (Homo sapiens, UniProt Q9Y2H1)
T10 construct: purchased Reaction Biology Corp
T10 sequence (Q9Y2H1 whole entry): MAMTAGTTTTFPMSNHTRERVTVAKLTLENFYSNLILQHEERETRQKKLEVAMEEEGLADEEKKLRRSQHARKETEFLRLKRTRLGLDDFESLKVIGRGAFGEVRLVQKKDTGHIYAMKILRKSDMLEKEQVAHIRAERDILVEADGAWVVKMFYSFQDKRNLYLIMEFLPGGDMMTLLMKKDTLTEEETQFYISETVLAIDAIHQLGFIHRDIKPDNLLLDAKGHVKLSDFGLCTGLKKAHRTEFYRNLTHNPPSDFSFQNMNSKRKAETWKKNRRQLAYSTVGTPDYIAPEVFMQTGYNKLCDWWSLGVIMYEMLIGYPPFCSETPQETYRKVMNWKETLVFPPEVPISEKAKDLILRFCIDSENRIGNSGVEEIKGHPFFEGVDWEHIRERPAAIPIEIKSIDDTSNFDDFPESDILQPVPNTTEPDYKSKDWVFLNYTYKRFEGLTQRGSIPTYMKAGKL
Method in brief: as §1

VRK1 = biological target: T11, VRK1 (Homo sapiens, UniProt Q99986)
T11 construct: purchased Reaction Biology Corp
T11 sequence (Q99986 1-396): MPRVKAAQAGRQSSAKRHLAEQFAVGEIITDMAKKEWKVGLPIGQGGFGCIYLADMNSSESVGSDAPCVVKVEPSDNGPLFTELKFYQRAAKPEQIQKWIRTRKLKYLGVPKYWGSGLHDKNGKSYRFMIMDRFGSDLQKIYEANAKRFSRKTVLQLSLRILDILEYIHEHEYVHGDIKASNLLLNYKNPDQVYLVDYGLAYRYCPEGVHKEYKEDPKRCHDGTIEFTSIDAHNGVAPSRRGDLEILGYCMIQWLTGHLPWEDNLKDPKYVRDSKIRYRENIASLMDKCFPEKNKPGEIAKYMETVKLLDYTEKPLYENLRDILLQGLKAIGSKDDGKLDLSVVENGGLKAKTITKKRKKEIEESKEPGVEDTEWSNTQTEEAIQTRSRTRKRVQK
Method in brief: as §1

[1] = read-out: % Enzyme Activity (relative to DMSO controls) Run 1
[2] = read-out: % Enzyme Activity (relative to DMSO controls) Run 2

T1 sequence (Q96NX5 whole entry): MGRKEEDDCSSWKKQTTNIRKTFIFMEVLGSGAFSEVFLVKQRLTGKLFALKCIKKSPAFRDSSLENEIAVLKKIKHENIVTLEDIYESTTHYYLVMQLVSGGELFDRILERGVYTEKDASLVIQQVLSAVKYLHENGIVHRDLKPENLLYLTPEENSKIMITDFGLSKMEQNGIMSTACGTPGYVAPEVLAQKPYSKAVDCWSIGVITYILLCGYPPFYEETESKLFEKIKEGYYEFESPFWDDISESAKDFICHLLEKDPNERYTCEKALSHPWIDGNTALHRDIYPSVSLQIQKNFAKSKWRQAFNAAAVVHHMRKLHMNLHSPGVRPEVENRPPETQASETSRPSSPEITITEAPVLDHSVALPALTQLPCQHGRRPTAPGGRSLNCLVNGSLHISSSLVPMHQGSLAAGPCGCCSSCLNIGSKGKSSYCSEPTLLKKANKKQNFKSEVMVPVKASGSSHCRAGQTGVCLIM

`C=CC(=O)Nc1cccc(Nc2nc(Nc3ccc(OCCOC)c(F)c3)ncc2F)c1` [Compound 2] gave an inhibition at 3 µM (CAMK1g) of -0.72%, a remaining activity at 3 µM (CAMK1g; [1]) of 100% and a remaining activity at 3 µM (CAMK1g; [2]) of 101%. For the same compound, the inhibition at 3 µM (DAPK2) was -9.89%, the remaining activity at 3 µM (DAPK2; [1]) was 108% and the remaining activity at 3 µM (DAPK2; [2]) was 112%. It also gave an inhibition at 3 µM (EPHB4) of 18.6%, a remaining activity at 3 µM (EPHB4; [1]) of 81.2% and a remaining activity at 3 µM (EPHB4; [2]) of 81.5%. For the same compound, the inhibition at 3 µM (ERK1) was 1.32%, the remaining activity at 3 µM (ERK1; [1]) was 97.4% and the remaining activity at 3 µM (ERK1; [2]) was 99.9%. For the same compound, the inhibition at 3 µM (GRK4) was -6.61%, the remaining activity at 3 µM (GRK4; [1]) was 107% and the remaining activity at 3 µM (GRK4; [2]) was 106%. The inhibition at 3 µM (IRAK1) was 24.6%, the remaining activity at 3 µM (IRAK1; [1]) was 76.5% and the remaining activity at 3 µM (IRAK1; [2]) was 74.4%. It also gave an inhibition at 3 µM (JAK2) of -11.6%, a remaining activity at 3 µM (JAK2; [1]) of 109% and a remaining activity at 3 µM (JAK2; [2]) of 115%. The inhibition at 3 µM (MAPKAPK2) was -7.86%, the remaining activity at 3 µM (MAPKAPK2; [1]) was 110% and the remaining activity at 3 µM (MAPKAPK2; [2]) was 106%. The inhibition at 3 µM (PLK3) was 1.28%, the remaining activity at 3 µM (PLK3; [1]) was 97% and the remaining activity at 3 µM (PLK3; [2]) was 100%. The inhibition at 3 µM (STK38L/NDR2) was -1.33%, the remaining activity at 3 µM (STK38L/NDR2; [1]) was 107% and the remaining activity at 3 µM (STK38L/NDR2; [2]) was 96%. For the same compound, the inhibition at 3 µM (VRK1) was 12.9%, the remaining activity at 3 µM (VRK1; [1]) was 84.3% and the remaining activity at 3 µM (VRK1; [2]) was 89.9%.
